Peptide text beside a SMILES is read from it.
Assays:
[1] = tested on: Methicillin-resistant S. aureus ATCC BAA-41; type: cell-based
Method: (§1) MIC denotes the lowest concentration of an antimicrobial agent that can inhibit the growth of bacteria after overnight incubation.
(§2) Bacteria were grown in their respective media (Table 2 above) overnight at 37° C. or room temperature with constant shaking and then diluted to 10^6 CFU/ml in their respective medium. Stock solutions of peptides at 0.68 mM were prepared in distilled water. Bacteria and peptide were incubated (50 μl: 50 μl) to make the final peptide concentrations (0.68, 3.4, 6.8, 13.7, 34.1, 68.3, 136.5 μM) in a 96-microtitre plate and incubated for 24 h with constant shaking. […] Absorbance at 600 nm was detected every 3 h up to 24 h to obtain the growth curves. The minimal inhibition concentration (MIC) was defined as the lowest concentration of an antimicrobial agent that could inhibit the growth of bacteria after overnight incubation.

[2] = tested on: Streptococcus pyogenes ATCC 14289; type: cell-based
Method: as §1, §2

E. tarda [3] = experiment: Host resistance assay, Experiment Two: pre-injection 2 h before bacteria; type: in vivo, Medaka; settings: injected 2 h prior to E. tarda
Method: FIG. 11A is a plot showing the effect of Peptide A on viability of cultured mammalian cells, incubated for 48 h in the presence of Peptide A at different concentrations (μg/ml), as determined by MTT assay. Cell viability represented as peptide treated cell numbers over medium-only control. Statistically significant difference as compared to controls (*: p<0.05, **: p<0.01, n=4). FIG. 11B is a plot showing the ability of Peptide A to protect medaka from lethal challenge of E. tarda ([…]). Medaka was injected with 1 μl of Peptide A (0.68 mM), with 1 μl of E. tarda (10^7 CFU/ml) and Peptide A (0.68 mM) mixture, or with E. tarda alone (1 μl of E. tarda:10^7 CFU/ml). […] 20 fish per group. Log-rank (Mantel-Cox) test was applied for the comparison of survival curves (**: p<0.01).
The efficacy of the synthesized AMP to protect medaka against infection was characterized using host resistance assays with intraperitoneal (i.p.) injection of bacteria using a micro-injection machine (PV820 Pneumatic PicoPump). In Experiment One, 80 medaka fish were used and divided into four groups (20 fish in each group, male, 6 months): (1) Group 1 was injected with only 1 μl of PBS in each fish; (2) Group 2 was injected with only 1 μl of novel AMP (0.68 mM) in each fish; (3) Group 3 was injected with 1 μl of bacteria (at a titer of 5×10^7 CFU/ml); and (4) bacteria and novel AMP were mixed for 5 min and then 1 μl of the mixture was injected into Group 4 (Bacteria: 5×10^7 CFU/ml, AMP: 0.68 mM). In Experiment Two, 60 fish were used and divided into three groups: each fish was injected with 1 μl of PBS, ampicillin (5.7 mM) or Peptide A (1.36 mM). The fish were anesthetized in MS222 for 30 s before microinjection. After two hours, 1 μl of bacteria (5×10^7 CFU/ml) was injected into the fish. All of the fishes were kept under a static condition of 26° C.±1° C., with 14:10 hrs of a light-dark cycle. The water was replaced every two days. The fish were fed three times each day. The number of dead fish was counted on a daily basis until two weeks after the injections.

Edwardsiella tarda PE210 = type: cell-based
Method: as §1, §2

[4] = tested on: Klebsiella pneumoniae (NDM-1) ATCC BAA-2470; type: cell-based
Method: as §1, §2

E. coli = type: cell-based
[5] = tested on: Staphylococcus epidermidis ATCC 12228; type: cell-based
Method: as §1, §2

E. tarda [6] = experiment: Quantitative proteomic analysis of AMP-treated bacteria; type: cell-based; settings: 6.8 μM, 1 hr
Method: Bacteria with or without AMP treatment for 1 hr at 6.8 μM were washed and lysed in 8 M of urea for 2 hrs. The lysate was then reduced in 10 mM of dithiothreitol (DTT) in 50 mM of ammonium bicarbonate (30 min at room temperature) and alkylated in 50 mM of […] (IAA) in 50 mM of ammonium bio-carbonate (20 min at room temperature). The samples were diluted 8 times with ammonium bicarbonate (50 mM, pH 8.0) so that the final concentration of urea was 1 M, followed by 2 μg of trypsin (Roche, Mannheim, Germany) for digestion. The mixtures were then incubated overnight at 37° C. and dried in a vacuum centrifuge (Eppendorf Concentrator plus). The peptides were dissolved in 20 μl of 0.1% trifluoroacetic acid (TFA), followed by ZipTip (Millipore, Billerica, Mass., USA) purification that was carried out in accordance with the manufacturer's instructions.
Mass spectrometry (MS) data were collected on an Orbitrap Fusion mass spectrometer coupled on-line with a nanoUPLC EASY-LC-1000 liquid chromatography system (ThermoFisher Scientific™, San Jose, Calif.). The peptides were eluted by using a microcapillary column with 50 cm×75 μm ID, PepMap C18, 2 μm particles (ThermoFisher Scientific™) with 2 to 80% acetonitrile in 0.1% formic acid at a flow rate of ˜350 nL/min for 120 min of gradient. They were ionized through electrospray ionization (positive mode 2.1 kV), and survey scans of peptide precursors from 350 to 1550 m/z were performed at a resolution of 120 K at 200 m/z. Tandem MS was performed by isolation at 1.2 Th with the quadrupole component, fragmentation with normalized collision energy of 35%, and rapid scan MS analysis in the ion trap. The MS2 ion count target was set to 10E4 and the maximum injection time was 250 ms. Only precursors with a charge state of 2-7 were fragmented for the MS2 analysis. The dynamic exclusion duration was set to 60 s with a 10 ppm of low and high mass tolerance around the selected precursor and its isotopes. The instrument was run in data dependent mode by using Orbitrap and an ion trap with […] cycles.
The raw data were analyzed by using Proteome Discoverer (Version 1.4.0.288. Thermo Fisher Scientific). The MS/MS spectra were searched with the Mascot search engine against the NCBI bacteria database 2014 (with 29,574 sequence entries). The peptides were generated from a Lys-C and tryptic digestion and the precursor mass tolerance was set as 25 ppm, and 0.6 Da for fragment mass tolerances. The oxidation of methionine and deamidation of N, Q were set as the dynamic modification, and the carbamidomethylation of cysteine-C as the static modification. The peptide spectral matches (PSMs) were validated by using a percolator based on q-values at a 1% false discovery rate (FDR). For protein identification, a high-confidence database search with a peptide target FDR (strict) of 0.1%, and target FDR (relaxed) 0.5% and ranked 1 peptides were used for peptide filtering. Identified peptides were grouped into individual protein clusters by scaffolding.
Peptide quantitation was carried out by using Progenesis LC-MS (version 4.1, Nonlinear) and as described in Babaei, F. et al. J. Proteome Res. Eversion, (2013). […] Following a statistical analysis, processing was carried out by using transformed “log-like” […] calculations of all the detected features. The total cumulative abundance was calculated by summing the abundance of all peptides that belonged to a respective protein. […]

Streptococcus Faecalis = type: cell-based
Method: as §1, §2

CC[C@H](C)[C@H](N)C(=O)N[C@@H](CCCNC(=N)N)C(=O)N[C@H](C(=O)N[C@H](C(=O)N[C@@H](CC(C)C)C(=O)N[C@@H](CCCNC(=N)N)C(=O)N[C@@H](C)C(=O)N[C@@H](CCC(N)=O)C(=O)NCC(=O)N[C@@H](C)C(=O)N[C@@H](CC(C)C)C(=O)N[C@@H](CCCCN)C(=O)N[C@H](C(=O)O)[C@@H](C)CC)[C@@H](C)CC)[C@@H](C)CC [Peptide A, IRIILRAQGALKI] (H-IRIILRAQGALKI-OH; N-terminus and C-terminus assumed)
MICs [1]: 21.8 µM | MICs [2]: 34.1 µM | initial survival rate (E. tarda [3]; one day post injection, Peptide A 1.37 mM, Ampicillin 5.7 mM, 1 μl): 85% | effect on E. tarda infection / surviving fish (E. tarda [3]; two weeks after infection): still higher than the controls | MICs (Edwardsiella tarda PE210): 6.8 µM | MICs [4]: 21.8 µM | MIC for E. coli (E. coli): 3.4 µM | MICs [5]: 2.7 µM | expression of CPX two component pathway proteins DsbC, PpiA and FkpA (E. tarda [6]): down-regulated | expression of DegQ, RpsO and YfiO (downstream proteins of the RpoE pathway) (E. tarda [6]): up-regulation | expression of Peptidyl-prolyl isomerase family members PpiA, PpiB, FkpA and SurA (E. tarda [6]): highly suppressed | expression of proteins involved in outer membrane assembly, peptidoglycan synthesis, and metal ion binding (E. tarda [6]): induced | proteins differentially expressed (at least one-fold difference) of 251 high confidence proteins (E. tarda [6]): 74 | MICs (Streptococcus Faecalis): 34.1 µM
